Measurements as given in patent publication US20050048587A1, “Methods for identifying tolerance modulatory compounds and uses therefor” (TolerRx, Inc., priority 2003, published 2005).

Experiments:
Assay type in all cases: cell-based, human
[1] = system: Th2 cells; assay: [3H] thymidine proliferation assay of differentiated Th2 cells; details: anti-CD3/CD-28 coated wells, 72 hrs with drug, [3H] thymidine incorporation
Description: (§1) Resting, fully differentiated Th1, Th2 and Treg were seeded in wells of a 96 well plate coated with anti-CD3 and CD-28. Cells (200,000 per well) were grown in the presence or absence of a known immunomodulatory drugs including rapamycin, cyclosporine A and Cellcept (MMF) (antiproliferative agent) at the concentrations indicated for 72 hrs prior to the addition of [^3H] thymidine. The cells were then incubated with [^3H] thymidine (0.5 μCi/well) for an additional 6-18 hrs and harvested. [^3H] thymidine incorporation was determined by liquid scintillation counting.

[2] = system: Th2 cytokines; assay: Cytokine production by differentiated Th2 cells, multiplexed ELISA; details: anti-CD3/CD-28 coated wells, 72 hrs with drug, supernatants
Description: (§2) Resting, fully differentiated Th1, Th2 and Treg were seeded in wells sof a 96 well plate coated with anti-CD3 and CD-28. Cells (200,000 per well) were grown in the presence or absence of a known immunomodulatory drugs including rapamycin, cyclosporine A and Cellcept (MMF) (antiproliferative agent) at the concentrations indicated for 72 hrs prior to the collection of supernatants for measurement of secreted cytokines. Cytokine measurement were made using a multiplexed ELISA assay (Pierce/Endogen Searchlight Assay).

[3] = system: GATA3; assay: GATA3 transcription factor mRNA expression, real-time PCR, in stimulated PBL; details: PBL stimulated 72 hrs with anti-CD3/anti-CD28 in presence of agent; relative to stimulated PBL without agent
Description: (§3) CD4+CD45RA+naïve, CD4+CD45RA−memory cells were prepared as follows. A Buffy Coat from human peripheral blood was obtained from the Oklahoma Blood Institute and processed as follows. Blood was diluted 1:2 with PBS without Ca^++Mg^++. 30 ml diluted blood was overlaid onto 15 ml Ficoll. Tubes were spun for ˜30 minutes at 2000 rpm. The Buffy cell layer was harvested into 25 ml PBS and brought to a volume of 45 ml total. Tubes were then spun ˜10 minutes at […]. Tubes were finally combined and washed with PBS. Approximately 10 percent of the cell preparation was set aside (X-VIVO 15 media+10% FCS) and is referred to hereinafter as “PBL.”
(§4) Cells (i.e., PDL, CD4+ naive, and CD4+ memory cells), were plated in six well dishes at approximately 3-4×10^6 cells/well. Prior to plating, wells were coated with αCD3/αCD28 antibodies. This was achieved by incubating the wells in the presence of antibodies for approximately 2 hrs at 37° C. Wells were subsequently washed with PBS. Cells were plated in X-VIVO 15 with 10% FCS. […]
(§5) 2.5 μl Assay on Demand reagent (Applied Biosystems) were added to 25 μl TaqMan Master MiX™ and samples brought to a total volume of 50 μl with RNAse-free water. […] Reactants were detected using an Applied Biosystems QPCR instrument (i.e., ABI Program 7000 SDS Sequence Detection System). […] The relative expression of the markers in each cell type and at each time point was also determined. […]

[4] = system: Tbox21; assay: Tbox21 (TBX21) transcription factor mRNA expression, real-time PCR, in stimulated PBL; details: PBL stimulated 72 hrs with anti-CD3/anti-CD28 in presence of agent; relative to stimulated PBL without agent
Description: as §3, §4, §5

[5] = system: Treg cells; assay: [3H] thymidine proliferation assay of differentiated Treg cells; details: anti-CD3/CD-28 coated wells, 72 hrs with drug, [3H] thymidine incorporation
Description: as §1

[6] = system: TGFβ by Treg cells; assay: TGFβ production by differentiated Treg cells, multiplexed ELISA; details: anti-CD3/CD-28 coated wells, 72 hrs with drug, supernatants
Description: as §2

[7] = system: peripheral blood lymphocytes (PBLs); assay: Assay of cell proliferation of stimulated PBL; details: PBL stimulated with anti-CD3/anti-CD28, 72 hours
Description: FIG. 3 graphically depicts the proliferation of peripheral blood lymphocytes (PBLs) at 72 hours post-stimulation with αCD3/αCD28 in the presence of the known immunomodulatory agents, rapamycin, cyclosporine, and Cellcept (MMF) (anti-proliferative agent). Proliferation is relative to that observed in control, stimulated PBL (in the absence of any added agent).
PBL were activated with anti-CD3 in combination with anti-CD28 in the presence or absence of the known immunomodulatory drugs including dexamethasone, rapamycin, cyclosporine A and Cellcept (antiproliferative agent) at the concentrations indicated. At 72 hours, RNA was prepared from the treated cells and the untreated controls. Real-time PCR was performed using cDNA from the RNA and using the primers and probes for the three transcription factors. The data are set forth in FIG. 2A-D. Dexamethasone is documented to result in a shift of in vivo immune responses towards characteristics recognized to be associated with Th2 cells when administered to both humans and animals. […] Rapamycin and cyclosporine are general immunosuppressants utilized to prevent allograft rejection in humans. Both drugs are known to utilize common cellular components. […] Cellcept is an anti-proliferative agent also used in organ transplantation. Its primary effect on the immune system is believed to be simple reduction of lymphocyte proliferation.

[8] = system: FOXP3; assay: FOXP3 transcription factor mRNA expression, real-time PCR, in stimulated PBL; details: PBL stimulated 72 hrs with anti-CD3/anti-CD28 in presence of agent; relative to stimulated PBL without agent
Description: as §3, §4, §5

[9] = system: Th1 cells; assay: [3H] thymidine proliferation assay of differentiated Th1 cells; details: anti-CD3/CD-28 coated wells, 72 hrs with drug, [3H] thymidine incorporation
Description: as §1

[10] = system: Th1 cytokines; assay: Cytokine production by differentiated Th1 cells, multiplexed ELISA; details: anti-CD3/CD-28 coated wells, 72 hrs with drug, supernatants
Description: as §2

With `COc1c(C)c2c(c(O)c1C/C=C(\C)CCC(=O)OCCN1CCOCC1)C(=O)OC2` [Cellcept] the “effect on proliferation of Th2 cells” value [1] was “equally inhibited the expansion of all cell types in a dose dependent manner”, the “effect on Th2 cytokine production” value [2] was “does not suppress” and the “effect on GATA3 (Th2 transcription factor) expression” value [3] was “did not affect”. For the same molecule, the “effect on Tbox21/TBX21 (Th1 transcription factor) expression” value [4] was “did not affect”, the “effect on proliferation (expansion) of Treg cells” value [5] was “equally inhibited the expansion of all cell types in a dose dependent manner” and the “effect on production of TGFβ by Treg cells” value [6] was “does not suppress any cytokine measured except for TGFβ in T reg cells”. For the same molecule, the “effect on cell proliferation” value [7] was “dose-dependent inhibition of proliferation”, the “effect on FOXP3 (Treg transcription factor) expression” value [8] was “did not affect” and the “effect on proliferation of Th1 cells” value [9] was “equally inhibited the expansion of all cell types in a dose dependent manner”. The “effect on Th1 cytokine production” value [10] was “does not suppress”.

TGFβ was tested, and the “effect on FOXP3 (Treg transcription factor) expression” value [8] was “induced”.

B1: IL4: cytokine known to initiate the differentiation of Th2 cells (protein, UniProt P05112 25-153, looked up)
Interleukin-4: HKCDITLQEIIKTLNSLTEQKTLCTELTVTDIFAASKNTTEKETFCRAATVLRQFYSHHEKDTRCLGATAQQFHRHKQLIRFLKRLDRNLWGLAGLNSCPVKEANQSTLENFLERLKTIMREKYSKCSS
For B1, the “effect on GATA3 (Th2 transcription factor) expression” value [3] was “clearly increased”.
